From ChEMBL document CHEMBL1133190, “SPR biosensor studies of the direct interaction between 27 drugs and a liposome surface: correlation with fraction absorbed in humans” (J Med Chem, 2000)

system: Liposome; assay: (§1) Binding to POPC/GMI liposomes using biosensor system; format: functional; settings: not given

| Compound | Other |
| --- | --- |
| C=CCOc1ccccc1OCC(O)CNC(C)C (stereo unspecified) | 277 |
| C=CCc1ccccc1OCC(O)CNC(C)C (stereo unspecified) | 480 |
| CC(C)NCC(O)COc1ccc(CC(N)=O)cc1 (stereo unspecified) | 38 |
| CC(C)NCC(O)COc1cccc2[nH]ccc12 (stereo unspecified) | 314 |
| CCN1CCCC1CNC(=O)c1cc(S(N)(=O)=O)ccc1OC (stereo unspecified) | 78 |
| NC[C@H]1CC[C@H](C(=O)O)CC1 | 14 |
| OC[C@@H](O)[C@@H](O)[C@H](O)[C@H](O)CO | 29 |
| OC[C@H]1O[C@@H](O[C@@H]2[C@@H](CO)O[C@](O)(CO)[C@H]2O)[C@H](O)[C@@H](O)[C@H]1O | 29 |
| OC[C@H]1O[C@H](OC[C@H]2O[C@H](O[C@]3(CO)O[C@H](CO)[C@@H](O)[C@@H]3O)[C@H](O)[C@@H](O)[C@@H]2O)[C@H](O)[C@@H](O)[C@H]1O | 34 |
| CC1(C)S[C@@H]2[C@H](NC(=O)[C@H](N)c3ccc(O)cc3)C(=O)N2[C@H]1C(=O)O [AMOXICILLIN] | 9 |
| Cc1cc(=O)n(-c2ccccc2)n1C [ANTIPYRINE] | 12 |
| NC(=O)N1c2ccccc2C=Cc2ccccc21 [CARBAMAZEPINE] | 144 |
| CNCCCN1c2ccccc2CCc2ccccc21 [DESIPRAMINE] | 1200 |
| OC[C@H]1OC(O)[C@H](O)[C@@H](O)[C@@H]1O (stereo partly specified) [DEXTROSE] | 10 |
| NS(=O)(=O)c1cc(C(=O)O)c(NCc2ccco2)cc1Cl [FUROSEMIDE] | 92 |
| NS(=O)(=O)c1cc2c(cc1Cl)NCNS2(=O)=O [HYDROCHLOROTHIAZIDE] | 95 |
| CC(C(=O)O)c1cccc(C(=O)c2ccccc2)c1 (stereo unspecified) [KETOPROFEN] | 101 |
| CC(C)NCC(O)COc1cccc2ccccc12 (stereo unspecified) [PROPRANOLOL] | 839 |

system: Liposome; assay: as §1; settings: not given

| Compound | Other |
| --- | --- |
| CC(C)(C)NCC(O)c1cc(O)cc(O)c1 (stereo unspecified) | 117 |
| COCCc1ccc(OCC(O)CNC(C)C)cc1 (stereo unspecified) | 179 |
| O=C(O)P(=O)(O)O | 62 |
| O=C(O)c1cc(/N=N/c2ccc(S(=O)(=O)Nc3ccccn3)cc2)ccc1O | 348 |
| CN1CC(=O)NC1=N [CREATININE] | 13 |
| CC(C)C[C@H](N)C(=O)O [LEUCINE] | 11 |
| COc1ccc2cc([C@H](C)C(=O)O)ccc2c1 [NAPROXEN] | 183 |
| NC(N)=O [UREA] | 26 |

system: Liposome; assay: (§2) Binding to POPC (palmitoyl-oleolyl-phosphatidyl-choline) liposomes using biosensor system; settings: not given

| Compound | Other |
| --- | --- |
| CC(C)(C)NCC(O)c1cc(O)cc(O)c1 (stereo unspecified) | 47 |
| COCCc1ccc(OCC(O)CNC(C)C)cc1 (stereo unspecified) | 82 |
| O=C(O)P(=O)(O)O | 32 |
| O=C(O)c1cc(/N=N/c2ccc(S(=O)(=O)Nc3ccccn3)cc2)ccc1O | 241 |
| CN1CC(=O)NC1=N [CREATININE] | 22 |
| CC(C)C[C@H](N)C(=O)O [LEUCINE] | 18 |
| COc1ccc2cc([C@H](C)C(=O)O)ccc2c1 [NAPROXEN] | 109 |
| NC(N)=O [UREA] | 23 |

system: Liposome; assay: as §2; format: functional; settings: not given

| Compound | Other |
| --- | --- |
| C=CCOc1ccccc1OCC(O)CNC(C)C (stereo unspecified) | 120 |
| C=CCc1ccccc1OCC(O)CNC(C)C (stereo unspecified) | 297 |
| CC(C)NCC(O)COc1ccc(CC(N)=O)cc1 (stereo unspecified) | 24 |
| CC(C)NCC(O)COc1cccc2[nH]ccc12 (stereo unspecified) | 142 |
| CCN1CCCC1CNC(=O)c1cc(S(N)(=O)=O)ccc1OC (stereo unspecified) | 47 |
| NC[C@H]1CC[C@H](C(=O)O)CC1 | 20 |
| OC[C@@H](O)[C@@H](O)[C@H](O)[C@H](O)CO | 22 |
| OC[C@H]1O[C@@H](O[C@@H]2[C@@H](CO)O[C@](O)(CO)[C@H]2O)[C@H](O)[C@@H](O)[C@H]1O | 22 |
| OC[C@H]1O[C@H](OC[C@H]2O[C@H](O[C@]3(CO)O[C@H](CO)[C@@H](O)[C@@H]3O)[C@H](O)[C@@H](O)[C@@H]2O)[C@H](O)[C@@H](O)[C@H]1O | 24 |
| CC1(C)S[C@@H]2[C@H](NC(=O)[C@H](N)c3ccc(O)cc3)C(=O)N2[C@H]1C(=O)O [AMOXICILLIN] | 17 |
| Cc1cc(=O)n(-c2ccccc2)n1C [ANTIPYRINE] | 19 |
| NC(=O)N1c2ccccc2C=Cc2ccccc21 [CARBAMAZEPINE] | 70 |
| CNCCCN1c2ccccc2CCc2ccccc21 [DESIPRAMINE] | 1010 |
| OC[C@H]1OC(O)[C@H](O)[C@@H](O)[C@@H]1O (stereo partly specified) [DEXTROSE] | 18 |
| NS(=O)(=O)c1cc(C(=O)O)c(NCc2ccco2)cc1Cl [FUROSEMIDE] | 56 |
| NS(=O)(=O)c1cc2c(cc1Cl)NCNS2(=O)=O [HYDROCHLOROTHIAZIDE] | 60 |
| CC(C(=O)O)c1cccc(C(=O)c2ccccc2)c1 (stereo unspecified) [KETOPROFEN] | 62 |
| CC(C)NCC(O)COc1cccc2ccccc12 (stereo unspecified) [PROPRANOLOL] | 683 |

system: not listed separately; assay: Estimation of fraction absorbed (Fa) in the human intestine using biosensor technology.; format: ADME, organism-based; settings: in vivo

| Compound | Fa [%] |
| --- | --- |
| COc1ccc(CCN(C)CCCC(C#N)(c2ccc(OC)c(OC)c2)C(C)C)cc1OC (stereo unspecified) | 100 |
| CC1(C)S[C@@H]2[C@H](NC(=O)[C@H](N)c3ccc(O)cc3)C(=O)N2[C@H]1C(=O)O [AMOXICILLIN] | 90 |
| Cc1cc(=O)n(-c2ccccc2)n1C [ANTIPYRINE] | 100 |
| NC(=O)N1c2ccccc2C=Cc2ccccc21 [CARBAMAZEPINE] | 100 |
| CN1CC(=O)NC1=N [CREATININE] | 100 |
| CNCCCN1c2ccccc2CCc2ccccc21 [DESIPRAMINE] | 100 |
| OC[C@H]1OC(O)[C@H](O)[C@@H](O)[C@@H]1O (stereo partly specified) [DEXTROSE] | 100 |
| NS(=O)(=O)c1cc(C(=O)O)c(NCc2ccco2)cc1Cl [FUROSEMIDE] | 50 |
| NS(=O)(=O)c1cc2c(cc1Cl)NCNS2(=O)=O [HYDROCHLOROTHIAZIDE] | 55 |
| CC(C(=O)O)c1cccc(C(=O)c2ccccc2)c1 (stereo unspecified) [KETOPROFEN] | 100 |
| CC(C)C[C@H](N)C(=O)O [LEUCINE] | 100 |
| COc1ccc2cc([C@H](C)C(=O)O)ccc2c1 [NAPROXEN] | 100 |
| CC(C)NCC(O)COc1cccc2ccccc12 (stereo unspecified) [PROPRANOLOL] | 100 |
| NC(N)=O [UREA] | 100 |
